Assay results from patent publication US20240092936A1, “METHODS OF TREATING HER2 POSITIVE BREAST CANCER WITH TUCATINIB IN COMBINATION WITH CAPECITABINE AND TRASTUZUMAB” (Seagen Inc., priority 2019, published 2024).
“Also recorded” adds a separate entry of the source. Where two headings read alike, the source gives them in different places.

Legend:
[1] = cited from earlier work
[2] = system: patients on tucatinib studies; assay: Safety observations in earlier tucatinib studies (e.g. ONT-380-005); format: in vivo, human; settings: patients taking tucatinib alone or in combination
From the text: Trastuzumab and other HER2-targeted therapies were known to increase the risk of the development of asymptomatic and symptomatic declines in LVEF. […] Cardiac function was therefore monitored closely.
Monitoring of liver function tests was required for any patient taking tucatinib.
Patients with brain metastases were at risk for occurrence of AEs due to the presence of CNS lesions, progression of disease and toxicities potentially related to study treatment. On occasion, treatment of brain metastases with systemic or radiation therapy had been associated with localized edema thought to be due to treatment effect and not tumor progression. […] The patient's symptoms responded rapidly and completely to systemic corticosteroids. It was not known if this patient's symptoms were due to local progression or treatment-related toxicity. […] The patient was taken for surgical resection, and found to have no viable tumor. The resected lesion was thought to represent treatment-related necrosis.

[3] = Table 11, strong inhibitors or inducers of CYP3A4
[4] = Table 10, strong inhibitors and inducer of CYP2C8

## NC(=O)N1c2ccccc2C=Cc2ccccc21 [Carbamazepine]
[1]; Table 11, repeat dose
  Elimination Half-life: 12 to 17 h (repeat dose)
[1]; Table 11, single dose
  Elimination Half-life (hours): 25-65 hours (single does),

## CC[C@H]1OC(=O)[C@H](C)[C@@H](O[C@H]2C[C@@](C)(OC)[C@@H](O)[C@H](C)O2)[C@H](C)[C@@H](O[C@@H]2O[C@H](C)C[C@H](N(C)C)[C@H]2O)[C@](C)(OC)C[C@@H](C)C(=O)[C@H](C)[C@@H](O)[C@]1(C)O [Clarithromycin]
[1]; [3]
  Elimination Half-life: 3 to 7 h

## COC(=O)[C@H](c1ccccc1Cl)N1CCc2sccc2C1 [Clopidogrel]
[1]; [4]
  Elimination Half-life: 6 h

## COc1ccc([C@@H]2Sc3ccccc3N(CCN(C)C)C(=O)[C@@H]2OC(C)=O)cc1 [Diltiazem]
[1]; [3]
  Elimination Half-life: 3 to 4 h

## Cc1ccc(C)c(OCCCC(C)(C)C(=O)O)c1 [Gemfibrozil]
[1]; [4]
  Elimination Half-life: 1 to 2 h

## CCC(C)n1ncn(-c2ccc(N3CCN(c4ccc(OCC5COC(Cn6cncn6)(c6ccc(Cl)cc6Cl)O5)cc4)CC3)cc2)c1=O (centres unmarked) [Itraconazole]
[1]; Table 11, repeat dose
  Elimination Half-life: 34 to 42 h (repeat dose)
[1]; Table 11, single dose
  Elimination Half-life (hours): 16-28 hours (single dose),

## CC(=O)N1CCN(c2ccc(OCC3COC(Cn4ccnc4)(c4ccc(Cl)cc4Cl)O3)cc2)CC1 (centres unmarked) [Ketoconazole (systemic), Ketoconazole]
[1]; [3]
  Elimination Half-life: 2 to 8 h

## CC(C)(O)c1ccccc1CC[C@@H](SCC1(CC(=O)O)CC1)c1cccc(/C=C/c2ccc3ccc(Cl)cc3n2)c1 [Montelukast]
[1]; [4]
  Elimination Half-life: 3 to 6 h

## CCc1nn(CCCN2CCN(c3cccc(Cl)c3)CC2)c(=O)n1CCOc1ccccc1 [Nefazodone]
[1]; [3]
  Elimination Half-life: 2 to 4 h

## O=C1NC(=O)C(c2ccccc2)(c2ccccc2)N1 [Phenytoin]
[1]; [3]
  Elimination Half-life: 7 to 42 h

## CC[C@@H]([C@H](C)O)n1ncn(-c2ccc(N3CCN(c4ccc(OC[C@@H]5CO[C@@](Cn6cncn6)(c6ccc(F)cc6F)C5)cc4)CC3)cc2)c1=O [Posoconazole]
[1]; [3]
  Elimination Half-life: 27 to 35 h

## COc1cc(Cc2cnc(N)nc2N)cc(OC)c1OC [Trimethoprim]
[1]; [4]
  Elimination Half-life: 8 to 12 h

## C[C@@H](c1ncncc1F)[C@](O)(Cn1cncn1)c1ccc(F)cc1F [Voriconazole]
[1]; [3]
  Elimination Half-life (hours): Dose dependent

## Cc1cc(Nc2ncnc3ccc(NC4=NC(C)(C)CO4)cc23)ccc1Oc1ccn2ncnc2c1 [tucatinib]
[2]
  Adverse findings reported in earlier tucatinib studies: rare reports of asymptomatic cardiac failure; also recorded: Grade 3 and 4 elevation of LFTs had been seen in some patients

## Troleanomycin
[1]; [3]
  Elimination Half-life: 2 h
